Assay results published in patent US20210393540A1, “NANOPARTICLE-ENCAPSULATED CANNABINOIDS AND METHODS FOR MAKING AND USING SAME” (NuRevelation, LLC, priority 2020, published 2021).

Assay: Stability of CBD after encapsulation into nanoparticles, by NMR spectra
Assay type: physicochemical
Settings: NMR spectrum of CBD after encapsulation into nanoparticles (bottom) relative to non-encapsulated CBD sample (top), FIG. 3
Excerpt: In some aspects, the cannabinoid in the dispersion can have a purity of at least 90%. In a further aspect, the purity of the cannabinoid in the dispersion ranges from 90-100%. In a still further aspect, the purity of the cannabinoid in the dispersion ranges from 92-97%. In general, the inventors have discovered that the encapsulation process described herein can be improved with the use of a pure cannabinoid starting material (e.g., from 92-97% pure). Similarly, the nanoparticle encapsulated cannabinoid products can advantageously maintain the purity of the cannabinoid over extended periods of time. In some aspects, the purity of the cannabinoid starting material can be maintained once encapsulated for a period of twelve months or longer, e.g., 18 months or longer, or even 24 months or longer. The stable shelf life of the cannabinoid nanoparticles is an advantage over many existing methods for delivering cannabinoid products. In some aspects, the stability of the cannabinoid can be measured using NMR, e.g., by comparing a pre-encapsulated cannabinoid to a cannabinoid extracted from a nanoparticle prepared by a disclosed method.

C=C(C)[C@@H]1CCC(C)=C[C@H]1c1c(O)cc(CCCCC)cc1O [CBD, cannabidiol]
stability of CBD after encapsulation: remains intact
